From patent US7589095B2, “4-phenyl-pyrimidine-2-carbonitrile derivatives” (N.V. Organon, priority 2004, dated 2009)

Target: T1, recombinant human Cathepsin K (Homo sapiens, UniProt P43235)
T1 sequence (P43235 115-329): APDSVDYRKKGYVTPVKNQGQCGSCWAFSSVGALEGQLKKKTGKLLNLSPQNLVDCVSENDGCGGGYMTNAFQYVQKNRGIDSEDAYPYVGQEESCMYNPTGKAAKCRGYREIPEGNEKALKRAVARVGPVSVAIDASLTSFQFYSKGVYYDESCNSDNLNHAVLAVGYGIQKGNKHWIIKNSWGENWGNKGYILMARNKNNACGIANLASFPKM
Test: Cathepsin K activity: inhibition of recombinant human Cathepsin K, fluorogenic substrate Z-Phe-Arg-AMC
Assay type: biochemical
Conditions: pH5.5, fluorescence at 10 minutes, read-out: pIC50 (negative logarithm of the IC50 concentration) for inhibition of human cathepsin K (converted)
Description: To a 384 well microtitre plate is added 5 μl of a 100 μM solution of test compound in assay buffer (100 mM sodium acetate pH5.5, 5 mM EDTA, 5 mM dithiothreitol) with 10% dimethylsulfoxide (DMSO), plus 10 μl of 100 μM solution of the substrate Z-Phe-Arg-AMC (Bachem; 7-amido-coumarine derivative of the dipeptide N-benzyloxycarbonyl-Phe-Arg-OH) in assay buffer and 25 μl of assay buffer. 10 μl of a 1 mg/l solution of activated recombinant human cathepsin K, in assay buffer, is then added to the well, yielding a final inhibitor concentration of 10 μM.
Enzyme activity is determined by measuring the fluorescence of the liberated aminomethylcoumarin at […] using […] excitation, at 10 minutes. Percentage enzyme activity is calculated by comparison of this activity to that of a solution containing no inhibitor.

Structure (SMILES) | IC50 [nM]
N#Cc1nc(CCCN2CCN(c3ccccn3)CC2)cc(-c2cccc(C(F)(F)F)c2)n1 [4a′, 4-[3-(4-Pyridin-2-yl-piperazin-1-yl)-propyl]-6-(3-trifluoromethylphenyl)-pyrimidine-2-carbonitrile] | < 10
CCCc1nc(C#N)nc(-c2cccc(C(F)(F)F)c2)c1C [Example 2, 5-Methyl-4-propyl-6-(3-trifluoromethylphenyl)-pyrimidine-2-carbonitrile] | < 100
N#Cc1nc(CCCN2CCCCC2)cc(-c2cccc(C(F)(F)F)c2)n1 [Example 4a, 4-(3-Piperidin-1-yl-propyl)-6-(3-trifluoromethylphenyl)-pyrimidine-2-carbonitrile] | < 10
CN1CCN(CCCc2cc(-c3cccc(C(F)(F)F)c3)nc(C#N)n2)CC1 [Example 4d, 4-[3-(4-Methyl-piperazin-1-yl)-propyl]-6-(3-trifluoromethylphenyl)-pyrimidine-2-carbonitrile] | < 10
N#Cc1nc(CCCNC2CCCCC2)cc(-c2cccc(C(F)(F)F)c2)n1 [Example 4e, 4-(3-Cyclohexylamino-propyl)-6-(3-trifluoromethylphenyl)-pyrimidine-2-carbonitrile] | < 10
CC(C)NCCCc1cc(-c2cccc(C(F)(F)F)c2)nc(C#N)n1 [Example 4f, 4-(3-isopropylamino-propyl)-6-(3-trifluoromethylphenyl)-pyrimidine-2-carbonitrile] | < 10
CN(CCCc1cc(-c2cccc(C(F)(F)F)c2)nc(C#N)n1)Cc1ccccc1 [Example 4g, 4-[3-(Benzyl-methyl-amino)-propyl]-6-(3-trifluoromethylphenyl)-pyrimidine-2-carbonitrile] | < 10
CC(C)CNCCCc1cc(-c2cccc(C(F)(F)F)c2)nc(C#N)n1 [Example 4h, 4-(3-Isobutylamino-propyl)-6-(3-trifluoromethylphenyl)-pyrimidine-2-carbonitrile] | < 100
N#Cc1nc(CCCNCc2ccncc2)cc(-c2cccc(C(F)(F)F)c2)n1 [Example 4i, 4-{3-[(Pyridin-4-ylmethyl)-amino]-propyl}-6-(3-trifluoromethylphenyl)-pyrimidine-2-carbonitrile] | < 10
CCC(CC)NCCCc1cc(-c2cccc(C(F)(F)F)c2)nc(C#N)n1 [Example 4r, 4-[3-(1-Ethyl-propylamino)-propyl]-6-(3-trifluoromethylphenyl)-pyrimidine-2-carbonitrile] | < 10
CN1CCC(N(C)CCCc2cc(-c3cccc(C(F)(F)F)c3)nc(C#N)n2)CC1 [Example 4s, 4-{3-[Methyl-(1-methyl-piperidin-4-yl)-amino]-propyl}-6-(3-trifluoromethylphenyl)-pyrimidine-2-carbonitrile] | < 10
CN1CCCN(CCCc2cc(-c3cccc(C(F)(F)F)c3)nc(C#N)n2)CC1 [Example 4u, 4-[3-(4-Methyl-[1,4]diazepan-1-yl)-propyl]-6-(3-trifluoromethylphenyl)-pyrimidine-2-carbonitrile] | < 10
CNC(=O)CNCCCc1cc(-c2cccc(C(F)(F)F)c2)nc(C#N)n1 [Example 8a, 4-[3-(Methylcarbamoylmethyl-amino)-propyl]-6-(3-trifluoromethylphenyl)-pyrimidine-2-carbonitrile] | < 10
CC(=O)NCCNCCCc1cc(-c2ccc(C)c(C)c2)nc(C#N)n1 [Example 14j, 4-[3-(2-Acetylamino-ethylamino)-propyl]-6-(3,4-dimethyl-phenyl)-pyrimidine-2-carbonitrile] | < 10
Cc1ccc(-c2cc(CCCNCCN3CCNC3=O)nc(C#N)n2)cc1C [Example 14n, 4-(3,4-Dimethyl-phenyl)-6-{3-[2-(2-oxo-imidazolidin-1-yl)-ethylamino]-propyl}-pyrimidine-2-carbonitrile] | < 10

Test system: not given
Test: not given
Conditions: not given

Structure (SMILES) | melting point [°C]
CCCc1cc(-c2cccc(C(C)C)c2)nc(C#N)n1 [Example 5a, 4-(3-Isopropyl-phenyl)-6-propyl-pyrimidine-2-carbonitrile] | 64
CCCc1cc(-c2cc(C(F)(F)F)cc(C(F)(F)F)c2)nc(C#N)n1 [Example 6a, 4-(3,5-Bis-trifluoromethyl-phenyl)-6-propyl-pyrimidine-2-carbonitrile] | 112
